Test results from patent publication US9062124B2, “GIP-based mixed agonists for treatment of metabolic disorders and obesity” (priority 2008, dated 2015).
Where a SMILES comes first, the peptide text is derived from it. [ ]: non-standard residue; d: D form. The star is where a group is joined. Myristoyl = CCCCCCCCCCCCCC(=O)*; Aib = CC(C)(N)C(=O)O

Experiments:
Assay type in all cases: cell-based
[1] = biological target: T1, GIP receptor (Homo sapiens, UniProt P48546); test: cAMP synthesis functional assay (firefly luciferase reporter in HEK293 cells), GIP receptor; settings: for EC50: GIP Receptor EC50, cAMP luciferase reporter assay as in Example 16
T1 construct: expressed in transfected cells; host or cells: HEK293
T1 sequence (P48546 22-466): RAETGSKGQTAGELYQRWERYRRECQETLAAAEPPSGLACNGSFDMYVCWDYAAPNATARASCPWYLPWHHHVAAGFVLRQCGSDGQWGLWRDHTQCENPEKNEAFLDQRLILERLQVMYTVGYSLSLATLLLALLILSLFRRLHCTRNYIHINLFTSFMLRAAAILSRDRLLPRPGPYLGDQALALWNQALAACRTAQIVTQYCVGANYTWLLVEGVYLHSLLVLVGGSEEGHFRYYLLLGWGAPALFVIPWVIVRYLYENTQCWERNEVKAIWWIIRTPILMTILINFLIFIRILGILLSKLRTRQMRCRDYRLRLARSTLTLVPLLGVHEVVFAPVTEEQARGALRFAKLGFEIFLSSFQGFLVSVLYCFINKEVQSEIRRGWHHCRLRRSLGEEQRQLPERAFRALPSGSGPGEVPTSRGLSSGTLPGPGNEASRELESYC

[2] = biological target: T2, GLP-1 receptor (Homo sapiens, UniProt P43220); test: cAMP synthesis functional assay (firefly luciferase reporter in HEK293 cells), GLP-1 receptor; settings: for EC50: GLP-1 Receptor EC50, cAMP luciferase reporter assay as in Example 16
T2 construct: expressed in transfected cells; host or cells: HEK293
T2 sequence (P43220 24-463, species assumed): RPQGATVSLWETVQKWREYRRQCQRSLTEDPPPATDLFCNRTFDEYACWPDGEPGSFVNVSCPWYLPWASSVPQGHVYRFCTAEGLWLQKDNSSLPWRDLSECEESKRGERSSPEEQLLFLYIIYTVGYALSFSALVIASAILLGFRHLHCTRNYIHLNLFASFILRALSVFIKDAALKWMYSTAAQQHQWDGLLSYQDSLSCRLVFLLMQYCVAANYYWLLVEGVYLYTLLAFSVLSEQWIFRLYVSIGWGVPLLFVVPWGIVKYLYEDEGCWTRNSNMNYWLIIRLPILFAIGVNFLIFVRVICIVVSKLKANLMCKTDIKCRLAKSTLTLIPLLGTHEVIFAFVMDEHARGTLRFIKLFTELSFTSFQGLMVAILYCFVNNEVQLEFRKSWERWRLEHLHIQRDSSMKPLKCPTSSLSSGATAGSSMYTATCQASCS

[3] = biological target: T3, glucagon receptor (Homo sapiens, UniProt P47871); test: cAMP synthesis functional assay (firefly luciferase reporter in HEK293 cells), glucagon receptor
T3 construct: expressed in transfected cells; host or cells: HEK293
T3 sequence (P47871 26-477): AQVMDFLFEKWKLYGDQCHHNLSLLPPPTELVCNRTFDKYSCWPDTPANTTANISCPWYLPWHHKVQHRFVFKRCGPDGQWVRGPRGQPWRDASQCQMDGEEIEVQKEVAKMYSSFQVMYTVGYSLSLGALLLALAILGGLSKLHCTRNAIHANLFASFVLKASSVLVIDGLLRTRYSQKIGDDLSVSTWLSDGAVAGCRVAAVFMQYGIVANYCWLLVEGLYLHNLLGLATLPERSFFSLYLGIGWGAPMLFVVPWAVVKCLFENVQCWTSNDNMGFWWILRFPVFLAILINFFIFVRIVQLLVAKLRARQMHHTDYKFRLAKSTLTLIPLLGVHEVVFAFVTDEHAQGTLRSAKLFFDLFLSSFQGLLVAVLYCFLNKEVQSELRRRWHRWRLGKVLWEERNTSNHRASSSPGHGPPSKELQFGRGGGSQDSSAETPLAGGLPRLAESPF

[4] = relative to the standard (Std.) EC50 of the same run
[5] = Table 4, relative to the native hormone

SMILES	EC50 [1] [pM]	GIP Receptor relative activity [1, 4] [%]	EC50 [2] [pM]	GLP-1 Receptor relative activity [2, 4] [%]	Glucagon Receptor relative activity [3, 4] [%]	GIP Receptor relative activity [1, 5] [%]	GLP-1 Receptor relative activity [2, 5] [%]	Glucagon Receptor relative activity [3, 5] [%]
CCCCCCCCCCCCCC(=O)NCCCC[C@H](NC(=O)[C@H](CC(=O)O)NC(=O)[C@H](CO)NC(=O)[C@@H](NC(=O)[C@H](Cc1ccccc1)NC(=O)[C@@H](NC(=O)CNC(=O)[C@H](CCC(=O)O)NC(=O)C(C)(C)NC(=O)[C@@H](N)Cc1ccc(O)cc1)[C@@H](C)O)[C@@H](C)O)C(=O)N[C@@H](CO)C(=O)N[C@H](C(=O)N[C@@H](Cc1ccc(O)cc1)C(=O)N[C@@H](CC(C)C)C(=O)N[C@@H](CC(=O)O)C(=O)N[C@@H](CCCCN)C(=O)N[C@@H](CCC(N)=O)C(=O)N[C@@H](C)C(=O)N[C@@H](C)C(=O)NC(C)(C)C(=O)N[C@@H](CCC(=O)O)C(=O)N[C@@H](Cc1ccccc1)C(=O)N[C@H](C(=O)N[C@@H](CS)C(=O)N[C@@H](Cc1c[nH]c2ccccc12)C(=O)N[C@@H](CC(C)C)C(=O)N[C@@H](CC(C)C)C(=O)N[C@@H](C)C(=O)NCC(=O)NCC(=O)N1CCC[C@H]1C(=O)N[C@@H](CO)C(=O)N[C@@H](CO)C(=O)NCC(=O)N[C@@H](C)C(=O)N1CCC[C@H]1C(=O)N1CCC[C@H]1C(=O)N1CCC[C@H]1C(=O)N[C@@H](CO)C(N)=O)C(C)C)[C@@H](C)CC [mt-337] (H-Y[Aib]EGTFTSDK(Myristoyl)SIYLDKQAA[Aib]EFVCWLLAGGPSSGAPPPS-NH2; N-terminus assumed)	8	115.00	8.2	74.39	0.02	–	–	–
CC[C@H](C)[C@H](NC(=O)[C@H](CO)NC(=O)[C@H](CCCCN)NC(=O)[C@H](CC(=O)O)NC(=O)[C@H](CO)NC(=O)[C@@H](NC(=O)[C@H](Cc1ccccc1)NC(=O)[C@@H](NC(=O)CNC(=O)[C@H](CCC(=O)O)NC(=O)C(C)(C)NC(=O)[C@@H](N)Cc1ccc(O)cc1)[C@@H](C)O)[C@@H](C)O)C(=O)N[C@@H](Cc1ccc(O)cc1)C(=O)N[C@@H](CC(C)C)C(=O)N[C@@H](CC(=O)O)C(=O)N[C@@H](CCCCN)C(=O)N[C@@H](CCC(N)=O)C(=O)N[C@@H](C)C(=O)N[C@@H](C)C(=O)NC(C)(C)C(=O)N[C@@H](CCC(=O)O)C(=O)N[C@@H](Cc1ccccc1)C(=O)N[C@H](C(=O)N[C@@H](CS)C(=O)N[C@@H](Cc1c[nH]c2ccccc12)C(=O)N[C@@H](CC(C)C)C(=O)N[C@@H](CC(C)C)C(=O)N[C@@H](C)C(=O)NCC(=O)NCC(=O)N1CCC[C@H]1C(=O)N[C@@H](CO)C(=O)N[C@@H](CO)C(=O)NCC(=O)N[C@@H](C)C(=O)N1CCC[C@H]1C(=O)N1CCC[C@H]1C(=O)N1CCC[C@H]1C(=O)N[C@@H](CO)C(N)=O)C(C)C [mt-338] (H-Y[Aib]EGTFTSDKSIYLDKQAA[Aib]EFVCWLLAGGPSSGAPPPS-NH2; N-terminus assumed)	23.4	39.32	226	2.70	0.01	–	–	–
CCCCCCCCCCCCCC(=O)NCCCC[C@H](NC(=O)[C@H](CO)NC(=O)[C@@H]1CCCN1C(=O)[C@@H]1CCCN1C(=O)[C@@H]1CCCN1C(=O)[C@H](C)NC(=O)CNC(=O)[C@H](CO)NC(=O)[C@H](CO)NC(=O)[C@@H]1CCCN1C(=O)CNC(=O)CNC(=O)[C@H](C)NC(=O)[C@H](CC(C)C)NC(=O)[C@H](CC(C)C)NC(=O)[C@H](Cc1c[nH]c2ccccc12)NC(=O)[C@H](CC(N)=O)NC(=O)[C@@H](NC(=O)[C@H](Cc1ccccc1)NC(=O)[C@H](CCC(=O)O)NC(=O)C(C)(C)NC(=O)[C@H](C)NC(=O)[C@H](C)NC(=O)[C@H](CCC(N)=O)NC(=O)[C@H](CCCCN)NC(=O)[C@H](CC(=O)O)NC(=O)[C@H](CC(C)C)NC(=O)[C@H](Cc1ccc(O)cc1)NC(=O)[C@@H](NC(=O)[C@H](CO)NC(=O)[C@H](Cc1ccc(O)cc1)NC(=O)[C@H](CC(=O)O)NC(=O)[C@H](CO)NC(=O)[C@@H](NC(=O)[C@H](Cc1ccccc1)NC(=O)[C@@H](NC(=O)CNC(=O)[C@H](CCC(=O)O)NC(=O)C(C)(C)NC(=O)[C@@H](N)Cc1ccc(O)cc1)[C@@H](C)O)[C@@H](C)O)[C@@H](C)CC)C(C)C)C(=O)N[C@@H](CS)C(N)=O [mt-339]	–	230.00	–	66.30	0.28	–	–	–
CC[C@H](C)[C@H](NC(=O)[C@H](CO)NC(=O)[C@H](Cc1ccc(O)cc1)NC(=O)[C@H](CC(=O)O)NC(=O)[C@H](CO)NC(=O)[C@@H](NC(=O)[C@H](Cc1ccccc1)NC(=O)[C@@H](NC(=O)CNC(=O)[C@H](CCC(=O)O)NC(=O)C(C)(C)NC(=O)[C@@H](N)Cc1ccc(O)cc1)[C@@H](C)O)[C@@H](C)O)C(=O)N[C@@H](Cc1ccc(O)cc1)C(=O)N[C@@H](CC(C)C)C(=O)N[C@@H](CC(=O)O)C(=O)N[C@@H](CCCCN)C(=O)N[C@@H](CCC(N)=O)C(=O)N[C@@H](C)C(=O)N[C@@H](C)C(=O)NC(C)(C)C(=O)N[C@@H](CCC(=O)O)C(=O)N[C@@H](Cc1ccccc1)C(=O)N[C@H](C(=O)N[C@@H](CC(N)=O)C(=O)N[C@@H](Cc1c[nH]c2ccccc12)C(=O)N[C@@H](CC(C)C)C(=O)N[C@@H](CC(C)C)C(=O)N[C@@H](C)C(=O)NCC(=O)NCC(=O)N1CCC[C@H]1C(=O)N[C@@H](CO)C(=O)N[C@@H](CO)C(=O)NCC(=O)N[C@@H](C)C(=O)N1CCC[C@H]1C(=O)N1CCC[C@H]1C(=O)N1CCC[C@H]1C(=O)N[C@@H](CO)C(=O)N[C@@H](CCCCN)C(=O)N[C@@H](CS)C(N)=O)C(C)C [mt-340]	2.8	328.57	–	100.00	0.24	–	–	–
CC[C@H](C)[C@H](NC(=O)[C@H](CO)NC(=O)[C@H](Cc1ccc(O)cc1)NC(=O)[C@H](CC(=O)O)NC(=O)[C@H](CO)NC(=O)[C@@H](NC(=O)[C@H](Cc1ccccc1)NC(=O)[C@@H](NC(=O)CNC(=O)[C@H](CCC(N)=O)NC(=O)C(C)(C)NC(=O)[C@@H](N)Cc1ccc(O)cc1)[C@@H](C)O)[C@@H](C)O)C(=O)N[C@@H](Cc1ccc(O)cc1)C(=O)N[C@@H](CC(C)C)C(=O)N[C@@H](CC(=O)O)C(=O)N[C@@H](CCCCN)C(=O)N[C@@H](CCC(N)=O)C(=O)N[C@@H](C)C(=O)N[C@@H](C)C(=O)NC(C)(C)C(=O)N[C@@H](CCC(=O)O)C(=O)N[C@@H](Cc1ccccc1)C(=O)N[C@H](C(=O)N[C@@H](CC(N)=O)C(=O)N[C@@H](Cc1c[nH]c2ccccc12)C(=O)N[C@@H](CC(C)C)C(=O)N[C@@H](CCSC)C(=O)N[C@@H](CC(N)=O)C(=O)NCC(=O)NCC(=O)N1CCC[C@H]1C(=O)N[C@@H](CO)C(=O)N[C@@H](CO)C(=O)NCC(=O)N[C@@H](C)C(=O)N1CCC[C@H]1C(=O)N1CCC[C@H]1C(=O)N1CCC[C@H]1C(=O)N[C@@H](CO)C(=O)N[C@@H](CCCCN)C(N)=O)C(C)C [mt-356] (H-Y[Aib]QGTFTSDYSIYLDKQAA[Aib]EFVNWLMNGGPSSGAPPPSK-NH2; N-terminus assumed)	–	–	–	–	–	25.66	224.02	126.06
CC[C@H](C)[C@H](NC(=O)[C@H](CO)NC(=O)[C@H](Cc1ccc(O)cc1)NC(=O)[C@H](CC(=O)O)NC(=O)[C@H](CO)NC(=O)[C@@H](NC(=O)[C@H](Cc1ccccc1)NC(=O)[C@@H](NC(=O)CNC(=O)[C@H](CCC(N)=O)NC(=O)C(C)(C)NC(=O)[C@@H](N)Cc1ccc(O)cc1)[C@@H](C)O)[C@@H](C)CC)C(=O)N[C@@H](Cc1ccc(O)cc1)C(=O)N[C@@H](CC(C)C)C(=O)N[C@@H](CC(=O)O)C(=O)N[C@@H](CCCCN)C(=O)N[C@@H](CCC(N)=O)C(=O)N[C@@H](C)C(=O)N[C@@H](C)C(=O)NC(C)(C)C(=O)N[C@@H](CCC(=O)O)C(=O)N[C@@H](Cc1ccccc1)C(=O)N[C@H](C(=O)N[C@@H](CC(N)=O)C(=O)N[C@@H](Cc1c[nH]c2ccccc12)C(=O)N[C@@H](CC(C)C)C(=O)N[C@@H](CC(C)C)C(=O)N[C@@H](C)C(=O)NCC(=O)NCC(=O)N1CCC[C@H]1C(=O)N[C@@H](CO)C(=O)N[C@@H](CO)C(=O)NCC(=O)N[C@@H](C)C(=O)N1CCC[C@H]1C(=O)N1CCC[C@H]1C(=O)N1CCC[C@H]1C(=O)N[C@@H](CO)C(=O)N[C@@H](CCCCN)C(N)=O)C(C)C [mt-357] (H-Y[Aib]QGTFISDYSIYLDKQAA[Aib]EFVNWLLAGGPSSGAPPPSK-NH2; N-terminus assumed)	–	–	–	–	–	206.37	0.86	260.92
